Laboratory results reported in PMC3969223, “Characterization of WZ4003 and HTH-01-015 as selective inhibitors of the LKB1-tumour-suppressor-activated NUAK kinases” (Biochemical Journal, 2013).

Columns and labels:
Experiment in all cases: Kinase profiling
Format in all cases: biochemical
[1] = target: MPSK1 (Homo sapiens, UniProt O75716); settings: 0.1 or 1 μM inhibitor; mean of triplicate
Protocol: (§1) Kinase inhibitor specificity profiling assays were carried out at The International Centre for Protein Kinase Profiling (http://www.kinase-screen.mrc.ac.uk/) against a panel of 140 protein kinases as described previously. Results are presented as a percentage of kinase activity in DMSO control reactions. Protein kinases were assayed in vitro with 0.1 or 1 μM of the inhibitors and the results are presented as an average of triplicate reactions±S.D. or in the form of comparative histograms.

[2] = target: T1, NUAK1 (Homo sapiens, UniProt O60285); settings: 0.1 or 1 μM inhibitor; mean of triplicate
T1 construct: made in house; host or cells: HEK-293 cells, transient transfection of pEBG2T construct
T1 sequence (O60285 1-661): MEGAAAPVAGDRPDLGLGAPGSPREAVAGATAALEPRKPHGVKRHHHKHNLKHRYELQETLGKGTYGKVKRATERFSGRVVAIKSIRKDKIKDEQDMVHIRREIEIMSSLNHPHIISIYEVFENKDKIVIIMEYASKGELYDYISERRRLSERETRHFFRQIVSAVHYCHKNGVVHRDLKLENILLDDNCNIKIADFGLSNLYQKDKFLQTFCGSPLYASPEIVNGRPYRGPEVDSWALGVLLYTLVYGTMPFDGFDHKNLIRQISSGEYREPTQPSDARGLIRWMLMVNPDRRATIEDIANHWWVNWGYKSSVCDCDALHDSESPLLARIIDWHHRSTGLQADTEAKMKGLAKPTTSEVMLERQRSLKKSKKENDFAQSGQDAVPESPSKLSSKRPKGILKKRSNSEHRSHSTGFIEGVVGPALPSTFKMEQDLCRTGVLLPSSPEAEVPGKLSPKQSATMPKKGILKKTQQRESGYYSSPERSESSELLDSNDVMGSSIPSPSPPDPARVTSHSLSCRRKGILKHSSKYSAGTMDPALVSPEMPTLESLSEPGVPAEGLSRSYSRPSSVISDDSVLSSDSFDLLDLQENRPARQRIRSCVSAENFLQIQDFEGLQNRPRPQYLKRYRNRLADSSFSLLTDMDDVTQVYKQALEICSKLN
Protocol: as §1

[3] = target: PIM2 (Homo sapiens, UniProt Q9P1W9); settings: 0.1 or 1 μM inhibitor; mean of triplicate
PIM2, sequence (Q9P1W9 whole entry): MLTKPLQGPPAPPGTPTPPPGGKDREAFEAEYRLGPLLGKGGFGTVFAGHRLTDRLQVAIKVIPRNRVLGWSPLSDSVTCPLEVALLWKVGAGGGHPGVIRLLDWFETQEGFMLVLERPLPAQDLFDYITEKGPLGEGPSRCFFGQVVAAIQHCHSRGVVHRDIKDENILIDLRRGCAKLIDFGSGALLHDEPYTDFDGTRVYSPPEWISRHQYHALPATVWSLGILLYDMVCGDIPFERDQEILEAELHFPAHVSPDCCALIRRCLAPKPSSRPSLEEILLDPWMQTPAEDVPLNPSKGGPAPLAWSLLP
Protocol: as §1

[4] = target: DYRK1A (Homo sapiens, UniProt Q13627); settings: 0.1 or 1 μM inhibitor; mean of triplicate
Protocol: as §1

[5] = target: EIF2AK3 (Homo sapiens, UniProt Q9NZJ5); settings: 0.1 or 1 μM inhibitor; mean of triplicate
EIF2AK3, sequence (Q9NZJ5 30-1116): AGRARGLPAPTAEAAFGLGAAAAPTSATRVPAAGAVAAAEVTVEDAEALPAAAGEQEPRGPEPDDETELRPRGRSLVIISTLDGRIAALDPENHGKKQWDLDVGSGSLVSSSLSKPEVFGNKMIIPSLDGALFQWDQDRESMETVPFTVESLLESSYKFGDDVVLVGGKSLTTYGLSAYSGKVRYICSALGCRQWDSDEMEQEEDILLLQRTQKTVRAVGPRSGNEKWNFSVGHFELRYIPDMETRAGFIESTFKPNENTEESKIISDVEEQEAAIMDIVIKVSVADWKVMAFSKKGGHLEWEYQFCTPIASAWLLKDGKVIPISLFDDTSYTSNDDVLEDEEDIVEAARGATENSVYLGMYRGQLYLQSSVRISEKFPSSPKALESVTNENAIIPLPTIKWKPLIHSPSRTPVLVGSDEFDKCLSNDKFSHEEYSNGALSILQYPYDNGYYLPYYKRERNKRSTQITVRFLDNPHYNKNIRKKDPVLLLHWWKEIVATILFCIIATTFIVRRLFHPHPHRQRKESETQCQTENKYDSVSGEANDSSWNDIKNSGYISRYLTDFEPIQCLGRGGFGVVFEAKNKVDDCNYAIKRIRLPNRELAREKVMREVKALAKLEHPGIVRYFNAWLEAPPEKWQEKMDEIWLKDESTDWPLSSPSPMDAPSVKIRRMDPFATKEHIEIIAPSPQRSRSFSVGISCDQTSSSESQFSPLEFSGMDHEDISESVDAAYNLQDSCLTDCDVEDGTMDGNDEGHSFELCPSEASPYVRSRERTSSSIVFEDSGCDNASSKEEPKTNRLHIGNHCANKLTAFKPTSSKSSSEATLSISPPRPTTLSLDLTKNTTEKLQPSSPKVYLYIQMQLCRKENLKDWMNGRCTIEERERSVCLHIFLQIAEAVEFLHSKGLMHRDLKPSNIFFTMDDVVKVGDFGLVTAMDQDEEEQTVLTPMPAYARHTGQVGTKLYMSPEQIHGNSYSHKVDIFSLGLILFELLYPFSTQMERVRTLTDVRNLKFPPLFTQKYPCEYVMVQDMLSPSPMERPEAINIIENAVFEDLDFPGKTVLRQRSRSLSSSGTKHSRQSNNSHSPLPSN
Protocol: as §1

[6] = target: SIK2 (Homo sapiens, UniProt Q9H0K1); settings: 0.1 or 1 μM inhibitor; mean of triplicate
Protocol: as §1

[7] = tested on: AMPK
Protocol: as §1

[8] = target: EPH-B2 (Homo sapiens, UniProt P29323); settings: 0.1 or 1 μM inhibitor; mean of triplicate
Protocol: as §1

[9] = target: IKKε (Homo sapiens, UniProt Q14164); settings: 0.1 or 1 μM inhibitor; mean of triplicate
Protocol: as §1

[10] = target: HIPK1 (Homo sapiens, UniProt Q86Z02); settings: 0.1 or 1 μM inhibitor; mean of triplicate
HIPK1, sequence (Q86Z02 whole entry): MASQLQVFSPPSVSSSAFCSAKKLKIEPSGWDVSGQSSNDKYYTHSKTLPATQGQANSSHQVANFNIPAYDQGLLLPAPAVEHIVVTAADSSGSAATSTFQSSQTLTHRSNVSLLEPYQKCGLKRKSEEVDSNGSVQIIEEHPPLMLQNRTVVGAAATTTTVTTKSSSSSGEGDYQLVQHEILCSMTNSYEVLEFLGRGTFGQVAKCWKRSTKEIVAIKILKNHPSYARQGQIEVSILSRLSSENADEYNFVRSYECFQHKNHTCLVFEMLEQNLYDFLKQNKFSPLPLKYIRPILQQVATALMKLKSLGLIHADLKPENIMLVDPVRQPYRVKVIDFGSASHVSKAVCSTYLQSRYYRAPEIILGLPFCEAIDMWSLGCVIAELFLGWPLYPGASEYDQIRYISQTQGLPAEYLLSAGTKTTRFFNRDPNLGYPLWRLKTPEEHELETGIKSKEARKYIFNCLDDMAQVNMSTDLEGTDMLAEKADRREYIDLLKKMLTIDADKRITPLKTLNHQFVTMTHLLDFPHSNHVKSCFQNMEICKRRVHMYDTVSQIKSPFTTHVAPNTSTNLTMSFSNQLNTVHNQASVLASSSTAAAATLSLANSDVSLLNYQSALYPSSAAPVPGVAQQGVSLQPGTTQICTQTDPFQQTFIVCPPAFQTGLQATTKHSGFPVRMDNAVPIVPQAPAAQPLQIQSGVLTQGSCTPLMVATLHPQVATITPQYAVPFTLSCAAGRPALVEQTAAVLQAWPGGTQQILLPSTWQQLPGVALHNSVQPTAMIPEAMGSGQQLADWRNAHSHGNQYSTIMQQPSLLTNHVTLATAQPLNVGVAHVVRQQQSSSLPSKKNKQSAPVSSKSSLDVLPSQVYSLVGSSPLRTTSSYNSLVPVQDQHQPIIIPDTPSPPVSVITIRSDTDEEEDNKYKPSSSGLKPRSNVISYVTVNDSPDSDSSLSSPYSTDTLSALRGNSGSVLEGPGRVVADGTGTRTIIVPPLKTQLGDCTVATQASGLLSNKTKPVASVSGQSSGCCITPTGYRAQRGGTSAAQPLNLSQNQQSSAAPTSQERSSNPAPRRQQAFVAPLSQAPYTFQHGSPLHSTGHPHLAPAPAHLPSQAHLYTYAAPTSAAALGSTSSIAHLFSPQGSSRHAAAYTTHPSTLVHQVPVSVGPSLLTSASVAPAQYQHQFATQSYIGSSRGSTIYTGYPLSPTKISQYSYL
Protocol: as §1

[11] = target: PKCζ (Homo sapiens, UniProt Q05513); settings: 0.1 or 1 μM inhibitor; mean of triplicate
Protocol: as §1

[12] = target: HIPK3 (Homo sapiens, UniProt Q9H422); settings: 0.1 or 1 μM inhibitor; mean of triplicate
Protocol: as §1

[13] = target: PRAK (Homo sapiens, UniProt Q8IW41); settings: 0.1 or 1 μM inhibitor; mean of triplicate
Protocol: as §1

[14] = target: PKBβ (Homo sapiens, UniProt P31751); settings: 0.1 or 1 μM inhibitor; mean of triplicate
Protocol: as §1

[15] = target: CSK (Homo sapiens, UniProt P41240); settings: 0.1 or 1 μM inhibitor; mean of triplicate
Protocol: as §1

[16] = target: TLK1 (Homo sapiens, UniProt Q9UKI8); settings: 0.1 or 1 μM inhibitor; mean of triplicate
Protocol: as §1

[17] = target: PKBα (Homo sapiens, UniProt P31749); settings: 0.1 or 1 μM inhibitor; mean of triplicate
Protocol: as §1

[18] = target: RSK2 (Homo sapiens, UniProt P51812); settings: 0.1 or 1 μM inhibitor; mean of triplicate
Protocol: as §1

[19] = target: LKB1 (Homo sapiens, UniProt Q15831); settings: 0.1 or 1 μM inhibitor; mean of triplicate
Protocol: as §1

[20] = target: ROCK 2 (Homo sapiens, UniProt O75116); settings: 0.1 or 1 μM inhibitor; mean of triplicate
Protocol: as §1

[21] = target: MAP4K5 (Homo sapiens, UniProt Q9Y4K4); settings: 0.1 or 1 μM inhibitor; mean of triplicate
MAP4K5, sequence (Q9Y4K4 whole entry): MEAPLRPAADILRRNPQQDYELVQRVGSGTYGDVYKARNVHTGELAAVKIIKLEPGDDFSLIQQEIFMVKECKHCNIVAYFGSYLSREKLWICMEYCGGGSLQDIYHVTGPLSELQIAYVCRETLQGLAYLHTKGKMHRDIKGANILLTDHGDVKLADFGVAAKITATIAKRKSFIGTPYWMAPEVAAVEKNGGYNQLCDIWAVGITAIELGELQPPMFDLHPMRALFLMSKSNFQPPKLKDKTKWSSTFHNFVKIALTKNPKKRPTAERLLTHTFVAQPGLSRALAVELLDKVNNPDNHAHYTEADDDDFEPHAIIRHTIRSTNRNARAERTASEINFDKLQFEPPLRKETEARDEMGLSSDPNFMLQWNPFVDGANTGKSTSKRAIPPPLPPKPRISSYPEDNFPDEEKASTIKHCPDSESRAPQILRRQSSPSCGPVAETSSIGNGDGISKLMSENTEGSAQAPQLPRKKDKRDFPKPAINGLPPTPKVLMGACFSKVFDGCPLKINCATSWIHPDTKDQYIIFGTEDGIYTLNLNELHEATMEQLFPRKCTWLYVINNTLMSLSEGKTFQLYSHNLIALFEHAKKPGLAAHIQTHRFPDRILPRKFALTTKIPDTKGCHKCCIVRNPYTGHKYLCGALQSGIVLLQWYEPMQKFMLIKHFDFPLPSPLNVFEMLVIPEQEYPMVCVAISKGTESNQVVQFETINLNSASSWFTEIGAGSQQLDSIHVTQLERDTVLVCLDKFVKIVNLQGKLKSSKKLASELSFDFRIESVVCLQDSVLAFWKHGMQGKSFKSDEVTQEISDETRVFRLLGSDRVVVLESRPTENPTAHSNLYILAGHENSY
Protocol: as §1

[22] = target: PHK (Homo sapiens, UniProt Q16816); settings: 0.1 or 1 μM inhibitor; mean of triplicate
Protocol: as §1

[23] = target: MARK3 (Homo sapiens, UniProt P27448)
Protocol: as §1

[24] = target: NEK6 (Homo sapiens, UniProt Q9HC98); settings: 0.1 or 1 μM inhibitor; mean of triplicate
NEK6, sequence (Q9HC98 whole entry): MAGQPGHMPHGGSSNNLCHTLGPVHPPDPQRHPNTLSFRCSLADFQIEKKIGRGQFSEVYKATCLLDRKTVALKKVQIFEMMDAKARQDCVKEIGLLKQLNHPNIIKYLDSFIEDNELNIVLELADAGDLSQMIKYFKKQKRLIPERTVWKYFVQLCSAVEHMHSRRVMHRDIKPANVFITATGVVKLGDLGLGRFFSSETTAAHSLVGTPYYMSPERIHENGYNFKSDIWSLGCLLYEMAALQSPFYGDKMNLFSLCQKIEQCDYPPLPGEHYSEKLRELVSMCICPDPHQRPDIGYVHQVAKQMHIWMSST
Protocol: as §1

[25] = target: p38β MAPK (Homo sapiens, UniProt Q15759); settings: 0.1 or 1 μM inhibitor; mean of triplicate
Protocol: as §1

[26] = target: MKK1 (Homo sapiens, UniProt Q02750); settings: 0.1 or 1 μM inhibitor; mean of triplicate
MKK1, sequence (Q02750 whole entry): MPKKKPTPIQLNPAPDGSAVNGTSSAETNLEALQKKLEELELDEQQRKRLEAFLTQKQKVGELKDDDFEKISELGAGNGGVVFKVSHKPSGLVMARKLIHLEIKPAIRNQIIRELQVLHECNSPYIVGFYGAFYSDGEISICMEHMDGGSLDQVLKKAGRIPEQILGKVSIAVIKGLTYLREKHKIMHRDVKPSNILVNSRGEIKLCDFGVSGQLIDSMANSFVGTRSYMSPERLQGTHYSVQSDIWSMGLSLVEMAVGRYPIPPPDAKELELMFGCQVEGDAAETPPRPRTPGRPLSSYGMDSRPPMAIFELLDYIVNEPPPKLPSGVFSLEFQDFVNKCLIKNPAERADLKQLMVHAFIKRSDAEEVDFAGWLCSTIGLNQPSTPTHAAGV
Protocol: as §1

[27] = target: FGF-R1 (Homo sapiens, UniProt P11362); settings: 0.1 or 1 μM inhibitor; mean of triplicate
Protocol: as §1

[28] = target: TAO1 (Homo sapiens, UniProt Q7L7X3); settings: 0.1 or 1 μM inhibitor; mean of triplicate
Protocol: as §1

[29] = target: MST4 (Homo sapiens, UniProt Q9P289); settings: 0.1 or 1 μM inhibitor; mean of triplicate
MST4, sequence (Q9P289 whole entry): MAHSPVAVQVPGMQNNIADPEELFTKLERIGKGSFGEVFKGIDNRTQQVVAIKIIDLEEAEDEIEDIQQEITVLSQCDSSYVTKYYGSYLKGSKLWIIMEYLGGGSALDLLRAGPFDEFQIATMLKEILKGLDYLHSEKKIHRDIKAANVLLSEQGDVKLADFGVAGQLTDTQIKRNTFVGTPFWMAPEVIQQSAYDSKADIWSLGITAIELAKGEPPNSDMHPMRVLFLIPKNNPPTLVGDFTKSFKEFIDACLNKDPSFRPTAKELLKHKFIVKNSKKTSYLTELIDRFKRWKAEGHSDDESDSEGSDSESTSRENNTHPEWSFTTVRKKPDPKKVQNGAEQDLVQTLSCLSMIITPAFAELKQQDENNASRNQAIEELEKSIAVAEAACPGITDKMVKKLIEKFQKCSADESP
Protocol: as §1

[30] = target: IRAK4 (Homo sapiens, UniProt Q9NWZ3); settings: 0.1 or 1 μM inhibitor; mean of triplicate
Protocol: as §1

[31] = target: CK1γ 2 (Homo sapiens, UniProt P78368); settings: 0.1 or 1 μM inhibitor; mean of triplicate
CK1γ 2, sequence (P78368 whole entry): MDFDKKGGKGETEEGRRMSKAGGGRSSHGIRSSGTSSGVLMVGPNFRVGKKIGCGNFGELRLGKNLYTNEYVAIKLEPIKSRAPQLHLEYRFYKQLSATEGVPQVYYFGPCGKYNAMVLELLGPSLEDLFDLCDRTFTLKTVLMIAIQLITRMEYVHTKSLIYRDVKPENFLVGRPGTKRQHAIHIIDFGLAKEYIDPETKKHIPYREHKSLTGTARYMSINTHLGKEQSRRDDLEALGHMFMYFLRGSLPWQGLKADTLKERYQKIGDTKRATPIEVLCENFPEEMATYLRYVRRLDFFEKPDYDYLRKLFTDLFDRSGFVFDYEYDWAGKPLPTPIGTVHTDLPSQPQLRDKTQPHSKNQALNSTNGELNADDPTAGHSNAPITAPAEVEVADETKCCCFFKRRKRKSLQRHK
Protocol: as §1

[32] = target: EPH-B1 (Homo sapiens, UniProt P54762); settings: 0.1 or 1 μM inhibitor; mean of triplicate
Protocol: as §1

[33] = target: RIPK2 (Homo sapiens, UniProt O43353); settings: 0.1 or 1 μM inhibitor; mean of triplicate
Protocol: as §1

[34] = 0.1 or 1 μM inhibitor, mean of triplicate

SMILES | MPSK1 activity, percentage of DMSO control [1] [percentage] | NUAK1 activity, percentage of DMSO control [2] [percentage] | PIM2 activity, percentage of DMSO control [3] [percentage] | DYRK1A activity, percentage of DMSO control [4] [percentage] | EIF2AK3 activity, percentage of DMSO control [5] [percentage] | SIK2 activity, percentage of DMSO control [6] [percentage] | EPH-B2 activity, percentage of DMSO control [8] [percentage] | IKKε activity, percentage of DMSO control [9] [percentage] | HIPK1 activity, percentage of DMSO control [10] [percentage] | PKCζ activity, percentage of DMSO control [11] [percentage] | HIPK3 activity, percentage of DMSO control [12] [percentage] | PRAK activity, percentage of DMSO control [13] [percentage] | PKBβ activity, percentage of DMSO control [14] [percentage] | CSK activity, percentage of DMSO control [15] [percentage] | TLK1 activity, percentage of DMSO control [16] [percentage] | PKBα activity, percentage of DMSO control [17] [percentage] | RSK2 activity, percentage of DMSO control [18] [percentage] | LKB1 activity, percentage of DMSO control [19] [percentage] | ROCK 2 activity, percentage of DMSO control [20] [percentage] | MAP4K5 activity, percentage of DMSO control [21] [percentage] | other results
Cc1nc(Nc2cnn(C3CCNCC3)c2)nc2c1N(C)C(=O)c1cc3ccccc3cc1N2C [HTH-01-015] | 103 | 11 | 106 | 89 | 99 | 112 | 97 | 85 | 107 | 98 | 96 | 105 | 104 | 103 | 106 | 87 | 106 | 98 | 110 | 106 | AMPK activity, percentage of DMSO control [7, 34]: 127 percentage; PHK activity, percentage of DMSO control [22]: 104 percentage; MARK3 activity, percentage of DMSO control [23, 34]: 102 percentage; NEK6 activity, percentage of DMSO control [24]: 99 percentage; p38β MAPK activity, percentage of DMSO control [25]: 112 percentage; MKK1 activity, percentage of DMSO control [26]: 113 percentage; FGF-R1 activity, percentage of DMSO control [27]: 105 percentage; TAO1 activity, percentage of DMSO control [28]: 123 percentage; MST4 activity, percentage of DMSO control [29]: 119 percentage; IRAK4 activity, percentage of DMSO control [30]: 103 percentage; CK1γ 2 activity, percentage of DMSO control [31]: 109 percentage; EPH-B1 activity, percentage of DMSO control [32]: 97 percentage; RIPK2 activity, percentage of DMSO control [33]: 88 percentage
CCC(=O)Nc1cccc(Oc2nc(Nc3ccc(N4CCN(C)CC4)cc3OC)ncc2Cl)c1 [WZ4003] | 107 | 6 | 101 | 102 | 76 | 70 | 107 | 104 | 103 | 86 | 91 | 94 | 114 | 105 | 91 | 98 | 76 | 87 | 80 | 108 | PHK activity, percentage of DMSO control [22]: 54 percentage; NEK6 activity, percentage of DMSO control [24]: 79 percentage; p38β MAPK activity, percentage of DMSO control [25]: 104 percentage; MKK1 activity, percentage of DMSO control [26]: 98 percentage; FGF-R1 activity, percentage of DMSO control [27]: 66 percentage; TAO1 activity, percentage of DMSO control [28]: 101 percentage; MST4 activity, percentage of DMSO control [29]: 101 percentage; IRAK4 activity, percentage of DMSO control [30]: 92 percentage; CK1γ 2 activity, percentage of DMSO control [31]: 102 percentage; EPH-B1 activity, percentage of DMSO control [32]: 98 percentage; RIPK2 activity, percentage of DMSO control [33]: 105 percentage
CN1C(=O)c2ccccc2N(C)c2nc(Nc3cnn(C4CCNCC4)c3)ncc21 [XMD-17-51] | – | – | – | – | – | – | – | – | – | – | – | – | – | – | – | – | – | – | – | – | Inhibition of AMPK in profiling (in words) ([7]; 1 μM): inhibited; Inhibition of MARK3 in profiling (in words) ([23]; 1 μM): inhibited
